Where “and” joins values, the source holds several entries; their conditions need not be identical. Equal values may be shown once. Read-outs that look alike come from different tables or passages of the source.
Key:
[1] = tested on: A-549 (human lung carcinoma); conditions: ref 104; read-out: IC50 (A-549); cited from earlier work
PC-3 = assay: Apoptosis assay (Cell Death Detection ELISA Plus), PC-3; assay type: cell-based, human; conditions: PC-3, 4 h incubation, enrichment of mono- and oligonucleosomes vs negative control
Procedure: (§1) The induction of apoptosis by tested compounds was determined with Cell Death Detection ELISA Plus from Roche Diagnostics GmbH (Mannheim, Germany).
(§2) Cell Death Detection ELISA Plus is an enzyme immunoassay for determining cytoplasmic histone-associated DNA fragments (mono- and […]) after induced cell death. Cells (10^4) were pipetted into wells of 96-well plates, and test compounds were added at final concentrations of 0.1, 1.0 and 10.0 µg × mL^−1. Cells incubated in the absence of test compounds served as negative controls. After 4 h of incubation, cells were harvested by centrifugation of the plates for 10 min at 200× g. Supernatants were removed carefully, and cell pellets were resuspended in 200 µL of cell lysis buffer and incubated for 30 min at room temperature. After centrifugation of the plates (10 min at 200× g), 20 µL of cell lysates was transferred in duplicate into wells of provided streptavidin-coated microplates. Then, 80 µL of the immunoreagent containing a mixture of anti-histone-biotin monoclonal antibody and anti-DNA-peroxidase monoclonal antibody was added to each well. The microplates were covered with a provided adhesive foil and incubated for 2 h at room temperature. Thereafter, the solution in the wells was removed by tapping the microplate. The wells were rinsed three times with incubation buffer, and 100 µL of substrate (2,2′-azino-bis [3-ethylbenzothiazoline-6-sulphonic acid], ABTS) was added to each well. After 10–20 min, 100 µL of ABTS stop solution was pipetted to each well, and the absorbance was read at 405 nm (test wavelength) and 490 nm (reference wavelength). The apoptotic index was calculated based on the enrichment of mono- and oligonucleosomes according to the following equation:apoptotic index = [{A405(sample) − A490(sample)}/{A405(negative control) − A490(negative control)}]

CUPRAC antioxidant assay = conditions: calculated from Trolox standard curve
Procedure: (§3) The results are presented as % inhibition of the copper(II) ions and Trolox equivalent calculated from the standard curve (Figure 9) and as % inhibition of the DPPH radical and Trolox equivalent, calculated from the standard curve (Figure 10).
(§4) The CUPRAC reagent (7.5 mM ethanolic 96% neocuproine solution, 10 mM CuCl2 × H2O solution and an ammonium acetate buffer of pH 7.0) and DPPH reagent (2,2-diphenyl-1-picrylhydrazyl 0.2 mM solution) were applied.
(§5) The CUPRAC method measures the reducing power of a sample by quantifying its ability to convert the Cu-neocuproine reagent complex to the Cu(I) form. In contrast, the DPPH assay relies on the ability of an antioxidant to donate a hydrogen atom or an electron to the stable DPPH radical, resulting in its reduction and subsequent color change. The results are presented as % inhibition of the copper(II) ions and Trolox equivalent calculated from the standard curve (Figure 9) and as % inhibition of the DPPH radical and Trolox equivalent, calculated from the standard curve (Figure 10). The spectroscopic detection in CUPRAC and DPPH assays was conducted with Synergy H1 Multi-Mode Microplate Reader (BioTek Instruments, Inc., Winooski, VT, USA). The details of the experiments are given in [102].

[2] = tested on: MCF-7 (human breast carcinoma); assay: MTT assay, MCF-7; assay type: cell-based; conditions: for IC50: MTT assay, MCF-7, read-out: IC50 (±SD), MCF-7; for Selectivity index (SI), MCF-7: IC50 HDF / IC50 MCF-7
Procedure: (§6) All the cell lines and mediums were obtained from the American Type Culture Collection (ATCC) supplied by LGC-Standards (Lomianki, Poland). Human cancer cell lines were cultured as follows: HeLa (human cervix carcinoma) and KB (human oral squamous carcinoma) lines were cultured in DMEM (Dulbecco’s Modified Eagle’s Medium); MCF-7 (human breast carcinoma) and A-549 (human lung carcinoma) were cultured in RPMI 1640 medium; PC-3 (human prostate carcinoma) was cultured in F-12K medium; SKOV-3 (human ovarian cystadenocarcinoma) was cultured in McCoy’s modified medium; HDF (human normal dermal fibroblasts) was cultured in Fibroblast Basal Medium. Each medium was supplemented with 10% fetal bovine serum, 1% L- glutamine and 1% penicillin/streptomycin solution. The cell lines were kept in an incubator at 37 °C.
(§7) All the tested cell lines (HeLa, KB, MCF-7, A-549, PC-3, SKOV-3 and HDF) were subjected to MTT assay. In short, this assay is based on the reaction between mitochondria enzymes (dehydrogenases) of tested cell lines and 3-(4,5-dimethylthiazol-2-yl)-2,5-diphenyltetrazolium bromide (MTT). The final product of this reaction gives violet formazan crystals. The number of live cells is proportional to the amount of formazan and is represented by the violet dye reagent. The details of the experiments are given in [19].

[3] = tested on: PC-3 (human prostate carcinoma); assay: MTT assay, PC-3; assay type: cell-based; conditions: for IC50: MTT assay, PC-3, read-out: IC50 (±SD), PC-3; for Selectivity index (SI), PC-3: IC50 HDF / IC50 PC-3
Procedure: as §6, §7

[4] = tested on: KB (human oral squamous carcinoma); assay: MTT assay, KB; assay type: cell-based; conditions: for IC50: MTT assay, KB; for Selectivity index (SI), KB: IC50 HDF / IC50 KB
Procedure: as §6, §7

SKOV-3 = assay: Apoptosis assay (Cell Death Detection ELISA Plus), SKOV-3; assay type: cell-based, human; conditions: SKOV-3, 4 h incubation, enrichment of mono- and oligonucleosomes vs negative control
Procedure: as §1, §2

[5] = tested on: KB (human oral squamous carcinoma); conditions: ref 104; cited from earlier work
RAW 264.7 = conditions: ref 106; cited from earlier work
[6] = tested on: HeLa, KB, MCF-7, A-549, PC-3 and SKOV-3; assay: MTT assay, summary over the cancer cell lines; assay type: cell-based, human; conditions: for cytotoxic activity class: classification by IC50 (good ≤ 10 μM, moderate 10–30 μM, ref 83)
Procedure: as §6, §7

[7] = tested on: HDF (human dermal fibroblasts); assay: MTT assay, normal HDF; assay type: cell-based; conditions: read-out: IC50 (±SD), HDF
Procedure: as §6, §7

[8] = tested on: HeLa (human cervical epithelioid carcinoma); assay: MTT assay, HeLa; assay type: cell-based; conditions: for IC50: MTT assay, HeLa, read-out: IC50 (±SD), HeLa; for Selectivity index (SI), HeLa: IC50 HDF / IC50 HeLa
Procedure: as §6, §7

[9] = tested on: B16-F10 (murine melanoma); conditions: cited from earlier work
DPPH antioxidant assay = conditions: calculated from Trolox standard curve
Procedure: as §3, §4, §5

[10] = tested on: HT-29 (human colorectal adenocarcinoma); conditions: ref 105; read-out: IC50 (HT-29); cited from earlier work
[11] = tested on: J774A.1 (macrophage-like cell line); conditions: ref 106; cited from earlier work
[12] = tested on: KB-VIN (multidrug resistant human epidermoid carcinoma); conditions: ref 104; cited from earlier work
[13] = tested on: A-549 (human lung carcinoma); assay: MTT assay, A-549; assay type: cell-based; conditions: for IC50: MTT assay, A-549, read-out: IC50 (±SD), A-549; for Selectivity index (SI), A-549: IC50 HDF / IC50 A-549
Procedure: as §6, §7

[14] = tested on: Hep-G2 (human hepatocellular carcinoma); conditions: ref 105; read-out: IC50 (Hep-G2); cited from earlier work
[15] = tested on: SKOV-3 (human ovarian carcinoma); assay: MTT assay, SKOV-3; assay type: cell-based; conditions: for IC50: MTT assay, SKOV-3, read-out: IC50 (±SD), SKOV-3; for Selectivity index (SI), SKOV-3: IC50 HDF / IC50 SKOV-3
Procedure: as §6, §7

Compound	Apoptotic index (AI), PC-3 (PC-3)	Trolox Equivalent, CUPRAC Assay (CUPRAC antioxidant assay)	IC50 ([2]; Homo sapiens, MCF7)	Selectivity index (SI), MCF-7 [2]	IC50 ([3]; Homo sapiens)	Selectivity index (SI), PC-3 [3]	IC50 ([4]; Homo sapiens)	Selectivity index (SI), KB [4]	Apoptotic index (AI), SKOV-3 (SKOV-3)	cytotoxic activity class [6]	IC50 ([7]; Homo sapiens, Fibroblast)	IC50 ([8]; Homo sapiens)	Selectivity index (SI), HeLa [8]	Trolox Equivalent, DPPH Assay (DPPH antioxidant assay)	IC50 ([13]; Homo sapiens, A549)	Selectivity index (SI), A-549 [13]	IC50 ([15]; Homo sapiens, SK-OV-3)	Selectivity index (SI), SKOV-3 [15]	IC50 [2]	IC50 [3]	further results
CC(=O)O[C@H]1CC[C@]2(C)[C@H]3CC=C4[C@@H]5CC(C)(C)CC[C@]5(C(=O)O)CC[C@@]4(C)[C@]3(C)CC[C@H]2C1(C)C [1b, 3-O-Acetyloleanolic acid]	6.90 (0.04)	0.2199 mg/mL and 0.2199 ± 0.00657 mg/mL	1.86 µM	0.10	0.11 µM	1.73	0.36 µM	0.53	6.79 (0.16)	very high cytotoxic activity	0.19 µM	0.24 µM	0.79	0.0143 ± 0.000592 mg/mL	0.24 µM	0.79	0.09 µM	2.11	–	–	IC50 [1]: 5.8 µM; IC50 [5]: 7.6 µM; IC50 (RAW 264.7): 13.8 µM; IC50 ([9]; ref 105): 64.7 µM; IC50 ([9]; ref 107): 64.7 µM; IC50 [10]: 148 µM; IC50 [11]: 16.8 µM; IC50 [12]: 7.6 µM; IC50 [14]: 104 µM
CC(=O)OCC12CCC(C)(C)CC1C1=CCC3C4(C)CCC(OC(C)=O)C(C)(C)C4CCC3(C)C1(C)CC2 (stereo not shown) [2b, 3,28-di-O-Acetylerythrodiol]	–	0.2402 mg/mL and 0.2402 ± 0.00995 mg/mL	61.6 µM	0.86	25.1 µM	2.11	50 µM	1.06	–	–	53.1 µM	70.3 µM	0.75	0.00313 ± 0.00013 mg/mL	51.6 µM	1.03	25.5 µM	2.08	–	–	–
CC1(C)CC[C@]23CC[C@]4(C)[C@H](CC[C@@H]5[C@@]6(C)CC[C@H](O)C(C)(C)[C@@H]6CC[C@]54C)[C@H]2[C@H]1OC3 [3a, allobetulin]	5.27 (0.01)	0.08248 mg/mL and 0.08248 ± 0.005 mg/mL	71.1 µM	0.68	20.2 µM	2.39	45.3 µM	1.06	5.78 (0.01)	–	48.2 µM	49.4 µM	0.97	0.01677 ± 0.000694 mg/mL	51.7 µM	0.93	20.9 µM	2.30	–	–	IC50 ([6]; Homo sapiens, MTT assay, range over tested cancer cell lines): 20 to 70 µM
CC(=O)OC1CCC2(C)C(CCC3(C)C2CCC2C4C5OCC4(CCC5(C)C)CCC23C)C1(C)C (stereo not shown) [3b, 3-O-Acetylallobetulin]	–	0.03212 mg/mL and 0.03212 ± 0.00166 mg/mL	–	–	–	–	–	–	–	–	–	–	–	0.00182 mg/mL and 0.00182 ± 0.000755 mg/mL	–	–	–	–	> 100 µM	52.2 µM	IC50 [4]: > 100 µM; IC50 [7]: 62 µM; IC50 [8]: > 100 µM; IC50 [13]: > 100 µM; IC50 [15]: 53.1 µM
C=C(C)C1CCC2(C(=O)O)CCC3(C)C(CCC4C5(C)CCC(OC(C)=O)C(C)(C)C5CCC43C)C12 (stereo not shown) [4b, 3-O-Acetylbetulinic acid]	7.09 (0.01)	0.1999 mg/mL and 0.1999 ± 0.0015 mg/mL	1.5 µM	1.92	0.93 µM	–	1.5 µM	1.92	7.81 (0.02)	very high cytotoxic activity	2.88 µM	1.62 µM	1.77	0.00376 ± 0.000156 mg/mL	1.23 µM	2.34	1.03 µM	–	–	–	–
C=C(C)[C@@H]1CC[C@]2(C)CC[C@]3(C)[C@H](CC[C@@H]4[C@@]5(C)CC[C@H](OC(C)=O)C(C)(C)[C@@H]5CC[C@]43C)[C@@H]12 [6b, 3-O-Acetylolupeol]	–	0.1349 ± 0.00514 mg/mL	–	–	–	–	–	–	–	–	–	–	–	0.00348 ± 0.000144 mg/mL	–	–	–	–	50 µM	22.2 µM	IC50 [4]: 72.5 µM; IC50 [7]: 35 µM; IC50 [8]: 72.6 µM; IC50 [13]: 56.2 µM; IC50 [15]: 21.1 µM

Source: publication PMC12196235, “Enhancing the Pharmacological Properties of Triterpenes Through Acetylation: An Anticancer and Antioxidant Perspective” (Molecules, 2025)
